One series deals with T1, BCRP (ABCG2) (Homo sapiens, UniProt Q9UNQ0).
T1 sequence (Q9UNQ0 whole entry): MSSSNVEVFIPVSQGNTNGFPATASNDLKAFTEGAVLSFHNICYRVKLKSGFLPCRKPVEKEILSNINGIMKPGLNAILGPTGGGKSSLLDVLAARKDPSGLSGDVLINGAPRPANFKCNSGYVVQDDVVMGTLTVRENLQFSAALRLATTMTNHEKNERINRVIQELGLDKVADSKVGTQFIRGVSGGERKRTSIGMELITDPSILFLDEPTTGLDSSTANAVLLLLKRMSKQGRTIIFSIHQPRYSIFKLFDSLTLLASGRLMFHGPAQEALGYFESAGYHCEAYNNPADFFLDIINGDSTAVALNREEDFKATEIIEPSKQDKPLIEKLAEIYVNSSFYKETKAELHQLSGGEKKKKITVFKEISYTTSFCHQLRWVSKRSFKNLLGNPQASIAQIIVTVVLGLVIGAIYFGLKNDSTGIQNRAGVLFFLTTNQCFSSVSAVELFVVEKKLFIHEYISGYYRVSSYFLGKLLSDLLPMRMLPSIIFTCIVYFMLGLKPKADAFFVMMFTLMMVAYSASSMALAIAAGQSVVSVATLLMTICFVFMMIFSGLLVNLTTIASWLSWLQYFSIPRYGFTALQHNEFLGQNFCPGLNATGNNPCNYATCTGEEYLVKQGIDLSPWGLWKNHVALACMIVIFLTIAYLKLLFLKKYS
Briefly: Activity at human BCRP expressed in MDCK2 cells assessed as basolateral to apical mass balance at 3 uM by liquid scintillation counting analysis. The conditions noted are these: read-out: Activity. The series is classed as ADME, cell-based, MDCK-II.

Series [1] concerns the target T2, Broad substrate specificity ATP-binding cassette transporter ABCG2 (Homo sapiens, UniProt Q9UNQ0).
T2 sequence (Q9UNQ0 whole entry): T1 sequence (Q9UNQ0 whole entry)
Briefly: Inhibition of BCRP (unknown origin) expressed in MDCK2 cells assessed as basolateral to apical transport of [14C]cimetidine at 100 uM after 90 mins by liquid scintillation counting analysis. As to conditions: mdck-ii, 1.5 h. It counts as ADME, cell-based.

Series [2] deals with T2, Broad substrate specificity ATP-binding cassette transporter ABCG2. Briefly: Inhibition of BCRP (unknown origin) expressed in MDCK2 cells assessed as basolateral to apical transport of [14C]cimetidine after 90 mins by liquid scintillation counting analysis. The series is classed as ADME, cell-based, MDCK-II.
The next series has as its target Cytochrome P450 3A4 (Homo sapiens, UniProt P08684). Briefly: Drug metabolism in supersomes expressing human recombinant CYP3A4 assessed as intrinsic clearance for NADPH-fortified enzyme-mediated metabolite M3 ((4R,12aS)-N-((3,5-difluorophenyl)(hydroxy)methyl)-7-hydroxy-4-methyl-6,8-dioxo-3,4,6,8,12,12a-hexahydro-2H-[1,3]oxazino[3,2-d]pyrido[1,2-a]pyrazine-9-carboxamide) formation at 5 uM after 120 mins by radio-HPLC analysis. The series is classed as ADME.

Series [3] in a line: In vitro passive membrane permeability across dog MDCK2 cells at 3 uM using fasted state-simulated intestinal fluid buffer at pH 5.5 on donor side and 1% human serum albumin at pH 7.4 on receiver side by liquid scintillation counting analysis. It counts as ADME, cell-based, Canis lupus familiaris, MDCK-II. As to conditions: MDCK, read-out: permeability.
Series [4] deals with ATP-binding cassette sub-family C member 2 (Homo sapiens, UniProt Q92887). Briefly: Inhibition of human MRP2 expressed in baculovirus-infected Sf9 cell membrane vesicle using [3H]estradiol 17beta-D-glucuronide as substrate preincubated with vesicles for 5 mins prior to substrate addition by liquid scintillation counting analysis.
The target in series [5] is T3, UDP-glucuronosyltransferase 1A1 (Homo sapiens, UniProt P22309).
T3 sequence (P22309 whole entry): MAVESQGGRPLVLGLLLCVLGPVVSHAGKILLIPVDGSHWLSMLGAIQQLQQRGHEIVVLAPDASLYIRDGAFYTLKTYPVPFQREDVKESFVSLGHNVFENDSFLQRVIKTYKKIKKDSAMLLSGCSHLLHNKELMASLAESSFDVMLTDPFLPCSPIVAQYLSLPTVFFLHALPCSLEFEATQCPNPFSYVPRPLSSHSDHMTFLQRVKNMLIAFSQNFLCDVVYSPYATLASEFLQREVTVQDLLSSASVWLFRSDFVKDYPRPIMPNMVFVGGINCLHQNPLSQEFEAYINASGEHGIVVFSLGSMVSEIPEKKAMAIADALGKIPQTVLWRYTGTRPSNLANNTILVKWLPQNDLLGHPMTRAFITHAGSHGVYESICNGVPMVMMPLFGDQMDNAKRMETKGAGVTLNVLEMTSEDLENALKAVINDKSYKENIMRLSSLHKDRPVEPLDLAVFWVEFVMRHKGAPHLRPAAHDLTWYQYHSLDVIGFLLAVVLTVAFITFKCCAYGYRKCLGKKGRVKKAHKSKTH
Briefly: Inhibition of human recombinant UGT1A1 expressed in supersomes assessed as scopoletin glucuronidation by fluorescence analysis. It counts as ADME.

Series [6] addresses T2, Broad substrate specificity ATP-binding cassette transporter ABCG2. Briefly: Inhibition of BCRP (unknown origin) expressed in MDCK2 cells assessed as basolateral to apical transport of [14C]cimetidine at 30 uM after 90 mins by liquid scintillation counting analysis. It counts as ADME, cell-based. The conditions noted are these: mdck-ii, 1.5 h.
Another series addresses Cytochrome P450 2D6 (Homo sapiens, UniProt P10635). Briefly: Metabolism-dependent inhibition of CYP2D6 in human liver microsomes using bufuralol as substrate preincubated for 20 mins with NADPH prior to initiation of reaction with probe substrate by HPLC analysis. The series is classed as ADME. In general terms: Liver microsomes are vesicles of endoplasmic reticulum, rich in cytochrome P450 enzymes.

A short description of series [7]: Drug metabolism in human hepatocytes assessed as DTG glucuronide metabolite ((2S,3S,4S,5R,6S)-6-((4R,12aS)-9-(2,4-difluorobenzylcarbamoyl)-4-methyl-6,8-dioxo-3,4,6,8,12,12a-hexahydro-2H-[1,3]oxazino[3,2-d]pyrido[1,2-a]pyrazin-7-yloxy)-3,4,5-trihydroxytetrahydro-2H-pyran-2-carboxylic acid) formation at 50 uM after 4 to 20 hrs by radio-HPLC analysis. It counts as ADME, cell-based, Hepatocyte.

A short description of series [8]: Drug excretion in human feces at 20 mg, po. It counts as ADME, tissue-based. The conditions noted are these: faeces, read-out: Drug excretion.
The target in a further series is MDR1 (P-gp, ABCB1) (Homo sapiens, UniProt P08183). Briefly: Activity at human MDR1 expressed in MDCK2 cells assessed as apical to basolateral mass balance at 3 uM by liquid scintillation counting analysis. The series is classed as ADME, cell-based, MDCK-II. The conditions noted are these: MDCK-MDR1, read-out: Activity.
Another series has as its target T4, Cytochrome P450 2B6 (Homo sapiens, UniProt P20813).
T4 sequence (P20813 whole entry): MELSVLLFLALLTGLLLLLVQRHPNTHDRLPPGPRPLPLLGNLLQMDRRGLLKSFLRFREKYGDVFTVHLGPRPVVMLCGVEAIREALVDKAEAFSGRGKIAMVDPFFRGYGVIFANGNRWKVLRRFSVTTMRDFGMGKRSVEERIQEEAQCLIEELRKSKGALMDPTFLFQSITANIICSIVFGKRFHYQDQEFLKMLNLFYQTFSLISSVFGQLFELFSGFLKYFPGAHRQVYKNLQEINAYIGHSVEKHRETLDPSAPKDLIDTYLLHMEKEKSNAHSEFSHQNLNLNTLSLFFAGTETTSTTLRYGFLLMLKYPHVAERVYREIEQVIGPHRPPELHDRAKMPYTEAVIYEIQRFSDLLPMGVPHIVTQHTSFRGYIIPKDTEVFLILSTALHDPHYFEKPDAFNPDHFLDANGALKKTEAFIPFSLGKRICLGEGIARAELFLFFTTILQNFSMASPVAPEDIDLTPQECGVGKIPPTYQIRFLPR
Briefly: Drug metabolism in supersomes expressing human recombinant CYP2B6 assessed as NADPH-fortified enzyme-mediated metabolite formation at 5 uM after 120 mins by radio HPLC analysis. The conditions noted are these: 2 h. The series is classed as ADME.

For orientation: IC50 means the concentration that gives 50% inhibition.

Chain of MDR1 (P-gp, ABCB1) (P08183 whole entry): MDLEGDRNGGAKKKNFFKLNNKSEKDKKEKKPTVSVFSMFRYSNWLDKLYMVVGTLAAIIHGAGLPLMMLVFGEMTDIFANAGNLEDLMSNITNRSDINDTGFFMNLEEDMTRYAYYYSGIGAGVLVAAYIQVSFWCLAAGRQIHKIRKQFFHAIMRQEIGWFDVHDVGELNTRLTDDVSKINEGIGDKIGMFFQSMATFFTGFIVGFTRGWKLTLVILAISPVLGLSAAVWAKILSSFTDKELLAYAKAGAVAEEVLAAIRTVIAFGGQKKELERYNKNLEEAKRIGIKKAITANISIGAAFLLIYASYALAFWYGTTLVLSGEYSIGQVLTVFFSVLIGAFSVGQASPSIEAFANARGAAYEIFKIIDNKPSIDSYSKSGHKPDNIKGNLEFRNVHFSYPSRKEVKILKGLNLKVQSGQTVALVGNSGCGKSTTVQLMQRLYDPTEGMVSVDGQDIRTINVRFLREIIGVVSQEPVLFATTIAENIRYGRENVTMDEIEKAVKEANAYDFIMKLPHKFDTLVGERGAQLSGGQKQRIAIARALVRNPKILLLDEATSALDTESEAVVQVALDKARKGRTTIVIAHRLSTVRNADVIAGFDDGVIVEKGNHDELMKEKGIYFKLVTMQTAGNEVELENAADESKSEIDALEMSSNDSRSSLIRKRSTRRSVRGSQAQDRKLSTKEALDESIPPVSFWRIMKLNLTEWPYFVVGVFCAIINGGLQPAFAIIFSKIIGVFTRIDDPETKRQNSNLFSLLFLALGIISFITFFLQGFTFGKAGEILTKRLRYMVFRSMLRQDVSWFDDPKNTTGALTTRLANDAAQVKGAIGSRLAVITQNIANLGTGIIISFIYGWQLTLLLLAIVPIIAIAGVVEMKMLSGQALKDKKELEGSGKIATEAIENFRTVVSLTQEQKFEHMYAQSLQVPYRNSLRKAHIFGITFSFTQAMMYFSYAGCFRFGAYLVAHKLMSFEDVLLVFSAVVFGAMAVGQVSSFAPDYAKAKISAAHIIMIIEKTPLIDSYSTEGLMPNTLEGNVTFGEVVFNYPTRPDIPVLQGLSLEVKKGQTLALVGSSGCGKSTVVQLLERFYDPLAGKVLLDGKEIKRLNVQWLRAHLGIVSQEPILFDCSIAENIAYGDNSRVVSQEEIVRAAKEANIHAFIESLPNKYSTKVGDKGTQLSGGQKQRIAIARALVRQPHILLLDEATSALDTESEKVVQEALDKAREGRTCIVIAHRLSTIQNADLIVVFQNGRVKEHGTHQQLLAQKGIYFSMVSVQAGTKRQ
Chain of Cytochrome P450 2D6 (P10635 whole entry): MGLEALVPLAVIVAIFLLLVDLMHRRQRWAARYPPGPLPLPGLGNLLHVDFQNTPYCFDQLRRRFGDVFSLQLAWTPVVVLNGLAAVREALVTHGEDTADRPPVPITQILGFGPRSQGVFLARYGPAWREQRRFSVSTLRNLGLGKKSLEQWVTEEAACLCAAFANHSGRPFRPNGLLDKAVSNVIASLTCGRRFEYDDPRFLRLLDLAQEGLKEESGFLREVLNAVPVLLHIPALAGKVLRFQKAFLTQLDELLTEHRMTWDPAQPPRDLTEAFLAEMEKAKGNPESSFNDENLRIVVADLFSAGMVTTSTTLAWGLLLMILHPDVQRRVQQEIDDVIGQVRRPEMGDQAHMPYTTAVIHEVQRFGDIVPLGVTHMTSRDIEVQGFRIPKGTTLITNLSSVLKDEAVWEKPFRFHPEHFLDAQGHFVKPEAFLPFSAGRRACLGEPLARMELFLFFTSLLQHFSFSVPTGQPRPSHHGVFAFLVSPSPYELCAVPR
Chain of Cytochrome P450 3A4 (P08684 whole entry): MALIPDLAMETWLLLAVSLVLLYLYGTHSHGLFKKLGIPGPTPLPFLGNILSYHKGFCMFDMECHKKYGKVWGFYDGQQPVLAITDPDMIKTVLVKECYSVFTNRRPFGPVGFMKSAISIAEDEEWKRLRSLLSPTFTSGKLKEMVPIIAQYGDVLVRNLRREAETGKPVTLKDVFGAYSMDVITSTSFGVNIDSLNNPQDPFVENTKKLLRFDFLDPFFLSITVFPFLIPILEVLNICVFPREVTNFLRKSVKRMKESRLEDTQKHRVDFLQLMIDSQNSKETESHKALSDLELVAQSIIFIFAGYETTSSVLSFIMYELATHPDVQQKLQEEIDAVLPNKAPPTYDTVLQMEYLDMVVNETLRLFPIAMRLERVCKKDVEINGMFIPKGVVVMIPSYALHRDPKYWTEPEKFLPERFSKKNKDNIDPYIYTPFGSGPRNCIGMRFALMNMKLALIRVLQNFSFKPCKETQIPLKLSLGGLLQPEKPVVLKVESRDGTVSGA
Chain of ATP-binding cassette sub-family C member 2 (Q92887 whole entry): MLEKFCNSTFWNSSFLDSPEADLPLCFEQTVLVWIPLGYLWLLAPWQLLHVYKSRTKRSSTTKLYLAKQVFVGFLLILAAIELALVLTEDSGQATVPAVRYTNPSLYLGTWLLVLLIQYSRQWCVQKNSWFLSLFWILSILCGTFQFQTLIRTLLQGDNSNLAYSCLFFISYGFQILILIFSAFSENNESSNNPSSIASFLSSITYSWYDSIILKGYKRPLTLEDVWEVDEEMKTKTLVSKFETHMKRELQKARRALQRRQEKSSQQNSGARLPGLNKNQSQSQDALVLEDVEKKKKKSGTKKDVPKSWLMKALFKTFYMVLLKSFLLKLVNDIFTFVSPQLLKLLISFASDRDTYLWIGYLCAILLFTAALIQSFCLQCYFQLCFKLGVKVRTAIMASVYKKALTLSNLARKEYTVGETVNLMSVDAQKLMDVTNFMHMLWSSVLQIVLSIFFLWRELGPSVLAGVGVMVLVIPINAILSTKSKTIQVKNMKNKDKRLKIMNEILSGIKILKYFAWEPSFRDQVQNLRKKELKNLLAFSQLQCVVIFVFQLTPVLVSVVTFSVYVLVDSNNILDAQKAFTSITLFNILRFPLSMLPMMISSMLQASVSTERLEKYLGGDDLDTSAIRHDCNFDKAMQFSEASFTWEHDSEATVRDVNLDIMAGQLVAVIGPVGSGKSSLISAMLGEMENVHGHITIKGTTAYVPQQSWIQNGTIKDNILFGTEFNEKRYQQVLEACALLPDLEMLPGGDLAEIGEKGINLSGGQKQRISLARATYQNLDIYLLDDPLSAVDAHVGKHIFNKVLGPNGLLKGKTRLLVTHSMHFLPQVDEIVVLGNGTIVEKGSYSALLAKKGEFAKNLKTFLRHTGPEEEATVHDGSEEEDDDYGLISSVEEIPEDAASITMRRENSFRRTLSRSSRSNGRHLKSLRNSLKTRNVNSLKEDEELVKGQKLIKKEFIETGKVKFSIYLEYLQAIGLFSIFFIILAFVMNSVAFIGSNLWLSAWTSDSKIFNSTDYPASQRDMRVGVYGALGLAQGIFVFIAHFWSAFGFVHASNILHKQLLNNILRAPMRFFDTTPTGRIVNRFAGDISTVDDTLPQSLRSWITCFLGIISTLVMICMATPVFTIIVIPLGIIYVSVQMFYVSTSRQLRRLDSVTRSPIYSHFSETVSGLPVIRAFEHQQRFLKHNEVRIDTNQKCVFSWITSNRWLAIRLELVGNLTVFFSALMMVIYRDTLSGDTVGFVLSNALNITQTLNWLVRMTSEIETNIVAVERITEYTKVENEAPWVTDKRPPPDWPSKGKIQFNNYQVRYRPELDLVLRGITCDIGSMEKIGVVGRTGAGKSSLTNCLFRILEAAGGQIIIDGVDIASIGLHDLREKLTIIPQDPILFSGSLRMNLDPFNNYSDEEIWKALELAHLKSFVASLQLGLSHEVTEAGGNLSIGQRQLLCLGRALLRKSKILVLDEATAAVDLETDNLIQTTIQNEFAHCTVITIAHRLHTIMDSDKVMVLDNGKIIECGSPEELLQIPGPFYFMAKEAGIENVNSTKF

As to `C[C@@H]1CCO[C@H]2Cn3cc(C(=O)NCc4ccc(F)cc4F)c(=O)c(O)c3C(=O)N12` [DOLUTEGRAVIR], the recovery at 3 µM was determined as 85% on BCRP (ABCG2) and 84% on MDR1 (P-gp, ABCB1). The “inhibition (INH)” value in [1] came to 50%; in series [6] it was 43%. Moreover, the IC50 was > 30 µM in series [2], > 100 µM in series [4], > 100 µM in series [5] and > 100 µM against Cytochrome P450 2D6. In addition, at Cytochrome P450 3A4, the CL is 3 µL/min/mg. Also, the Papp at 3 µM in series [3] was 26.5 ×10⁻⁶ cm/s. Moreover, the figures for the Drug metabolism result (in series [7]; on Cytochrome P450 2B6) were “metabolite_detected” and “metabolite_not_detected”, respectively. Moreover, the dose excreted in series [8] was found to be 3.1%.

These data come from ChEMBL document CHEMBL3526034 (Drug Metab Dispos, 2013).
